Test results as given in the NIST ThermoML archive (doi:10.1021/je900570e).

Assay: xn = mol fraction of the nth substance listed
Conditions: Liquid; for viscosity / speed of sound: 101 kPa; for viscosity: Capillary tube (Ostwald / Ubbelohde) method; for speed of sound: Frequency=2 MHz, Pulse-echo method; for mass density: 101.33 kPa, Vibrating tube method

ClCC(Cl)Cl [1,1,2-trichloroethane] + N#CCc1ccccc1
Conditions | mass density, 303.15 K [kg/m3] | mass density, 308.15 K [kg/m3] | mass density, 313.15 K [kg/m3] | speed of sound, 303.15 K [m/s] | speed of sound, 308.15 K [m/s] | speed of sound, 313.15 K [m/s] | viscosity, 303.15 K [mPa·s] | viscosity, 308.15 K [mPa·s] | viscosity, 313.15 K [mPa·s]
x2 = 0 | 1425 | 1416.1 | 1409.6 | 1129.2 | 1115.9 | 1096.1 | 1.019 | 0.9483 | 0.8888
x2 = 0.0185 | 1415.6 | 1407.2 | 1400.5 | 1137 | 1125 | 1105.9 | 1.046 | 0.9728 | 0.9045
x2 = 0.1212 | 1364.9 | 1358.6 | 1351.2 | 1176.7 | 1168.2 | 1150.9 | 1.158 | 1.064 | 0.9825
x2 = 0.2319 | 1312.6 | 1307.3 | 1300.6 | 1219.7 | 1214.2 | 1199.9 | 1.264 | 1.163 | 1.074
x2 = 0.3463 | 1261.1 | 1256.2 | 1250.2 | 1263.4 | 1261.9 | 1248.1 | 1.365 | 1.259 | 1.169
x2 = 0.445 | 1218.6 | 1214 | 1208.4 | 1301 | 1301.5 | 1288.9 | 1.454 | 1.336 | 1.242
x2 = 0.5545 | 1173.4 | 1168.9 | 1163.6 | 1342.8 | 1343.3 | 1332.8 | 1.545 | 1.411 | 1.307
x2 = 0.6861 | 1121.7 | 1117.3 | 1112.1 | 1393.4 | 1392.9 | 1383.2 | 1.631 | 1.491 | 1.381
x2 = 0.8245 | 1070.3 | 1065.7 | 1060.7 | 1446.6 | 1445.1 | 1431.8 | 1.706 | 1.561 | 1.436
x2 = 0.972 | 1018.4 | 1013.7 | 1009 | 1505.3 | 1498.7 | 1488.9 | 1.758 | 1.595 | 1.477

N#CCc1ccccc1 [benzeneacetonitrile] + ClCCCl
Conditions | mass density, 303.15 K [kg/m3] | mass density, 308.15 K [kg/m3] | mass density, 313.15 K [kg/m3] | speed of sound, 303.15 K [m/s] | speed of sound, 308.15 K [m/s] | speed of sound, 313.15 K [m/s] | viscosity, 303.15 K [mPa·s] | viscosity, 308.15 K [mPa·s] | viscosity, 313.15 K [mPa·s]
x1 = 0.0165 | 1233.5 | 1225.3 | 1218.7 | 1182.2 | 1171.9 | 1161 | 0.7352 | 0.6821 | 0.6456
x1 = 0.1059 | 1205.5 | 1198.9 | 1191.5 | 1221.2 | 1211.5 | 1200.5 | 0.8165 | 0.7512 | 0.708
x1 = 0.2041 | 1177.1 | 1171 | 1163.5 | 1262.4 | 1252.3 | 1243.7 | 0.9029 | 0.8313 | 0.7877
x1 = 0.3088 | 1149.2 | 1143.5 | 1136.1 | 1304.2 | 1293.6 | 1285.3 | 1.003 | 0.9258 | 0.8746
x1 = 0.4073 | 1124.8 | 1119.4 | 1111.8 | 1339.5 | 1330.8 | 1320.8 | 1.103 | 1.017 | 0.9576
x1 = 0.5122 | 1100.7 | 1095.6 | 1087.6 | 1374.8 | 1367.5 | 1355.9 | 1.213 | 1.117 | 1.048
x1 = 0.648 | 1072 | 1067.2 | 1058.8 | 1418.6 | 1411.8 | 1399.9 | 1.365 | 1.248 | 1.165
x1 = 0.8003 | 1042.8 | 1038.2 | 1029.5 | 1465.2 | 1458.9 | 1447.6 | 1.536 | 1.398 | 1.299
x1 = 0.9705 | 1013.6 | 1008.8 | 999.9 | 1512.6 | 1505.4 | 1499.1 | 1.725 | 1.568 | 1.456
x1 = 1 | 1008.8 | 1004.1 | 999.5 | 1519.2 | 1512.9 | 1503.4 | 1.761 | 1.602 | 1.489

N#CCc1ccccc1 [benzeneacetonitrile] + ClC=C(Cl)Cl
Conditions | mass density, 303.15 K [kg/m3] | mass density, 308.15 K [kg/m3] | mass density, 313.15 K [kg/m3] | speed of sound, 303.15 K [m/s] | speed of sound, 308.15 K [m/s] | speed of sound, 313.15 K [m/s] | viscosity, 303.15 K [mPa·s] | viscosity, 308.15 K [mPa·s] | viscosity, 313.15 K [mPa·s]
x1 = 0.0195 | 1437 | 1428.5 | 1420 | 1024.6 | 1004.9 | 992.5 | 0.5201 | 0.486 | 0.4908
x1 = 0.119 | 1383.8 | 1377.2 | 1369.5 | 1073.5 | 1057.5 | 1045.8 | 0.5905 | 0.553 | 0.5292
x1 = 0.2263 | 1329.5 | 1323.9 | 1316.9 | 1128.2 | 1114.1 | 1102.9 | 0.6901 | 0.6417 | 0.6092
x1 = 0.3478 | 1271.9 | 1266.3 | 1260.1 | 1191 | 1179.2 | 1169.9 | 0.82 | 0.7558 | 0.715
x1 = 0.4396 | 1230.2 | 1225 | 1219.2 | 1238.9 | 1228.9 | 1221.9 | 0.9316 | 0.8529 | 0.7976
x1 = 0.5443 | 1184.5 | 1179.6 | 1174.2 | 1293.3 | 1284.6 | 1279.3 | 1.066 | 0.9721 | 0.9137
x1 = 0.6782 | 1128.8 | 1124.7 | 1119.5 | 1364.1 | 1356.5 | 1351 | 1.248 | 1.147 | 1.075
x1 = 0.819 | 1074.1 | 1070.3 | 1064.9 | 1435.8 | 1428.4 | 1425 | 1.456 | 1.339 | 1.248
x1 = 0.9692 | 1019.7 | 1015.3 | 1010.2 | 1504.1 | 1502.7 | 1499.2 | 1.698 | 1.546 | 1.439
x1 = 1 | 1008.8 | 1004.1 | 999.5 | 1519.2 | 1512.9 | 1503.4 | 1.761 | 1.602 | 1.489
